Assay results published in patent US9493500B2, “Fluorinated pyrimidine analogs and methods of use thereof” (priority 2012, dated 2016).
Read-outs that look alike come from different tables or passages of the source.

Assays:
[1] = system: myelodysplatic syndrome (MDS); conditions: treated patients with MDS; cited from earlier work
[2] = system: various tumor cells lines, both solid and hematologic; conditions: available data; cited from earlier work
[3] = biological target: cytidine deaminase (Homo sapiens, UniProt P32320); conditions: deamination of the base to inactive uracil; cited from earlier work
Chain of cytidine deaminase (P32320 whole entry, species assumed): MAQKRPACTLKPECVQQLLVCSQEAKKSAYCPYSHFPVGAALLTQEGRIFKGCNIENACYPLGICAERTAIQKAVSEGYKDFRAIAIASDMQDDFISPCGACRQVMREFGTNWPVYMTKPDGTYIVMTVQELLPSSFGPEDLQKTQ

[4] = following subcutaneous administration; cited from earlier work
[5] = system: DNA methyltransferase (DNMT); assay: In vitro DNA methyltransferase inhibition in HCT-116 cells (EpiQuick kit); format: cell-based
Description: The assay was performed using the EpiQuick DNA Methyltransferase Activity/Inhibition Assay Kit (Epigentek, Brooklyn, N.Y.). The […] cells were incubated with 1 μM and 10 μM concentrations of each drug for a period of 24 hours.

[6] = system: various tumor cells lines, both solid and hematologic; assay: Cytotoxicity against various tumor cell lines (overall comparison); format: cell-based
[7] = system: L1210; assay: In vitro cytotoxicity, leukemia cell line L1210; conditions: read-out: In vitro cytotoxicity, Leukemia L1210; Table 3
[8] = system: HCT-116; assay: In vitro cytotoxicity (GI50), colon/colorectal cell line; format: cell-based
Description: (§1) The in vitro cytotoxicity was measured in the following cell lines: NCI-H460 (ATCC #HTB-177) (non-small cell lung), HCT-116 (ATCC #CCL-247) (colorectal), HL-60 (ATCC #CCL-240) (leukemia), and MDA-MB-231 (ATCC #HTB-26) (breast).

[9] = system: NCI-H460; assay: In vitro cytotoxicity (GI50), non-small cell lung cell line; format: cell-based
Description: as §1

[10] = system: MDA-MB-231; assay: In vitro cytotoxicity (GI50), breast cancer cell line; format: cell-based
Description: as §1

[11] = system: L1210

For `Nc1ncn([C@@H]2O[C@H](CO)[C@@H](O)[C@H]2O)c(=O)n1` [Azacytidine, 5-azacytidine], the “Remissions or clinical improvements” value [1] is given as “remissions or clinical improvements in more than half of the treated patients”.
For `NC1=NC(=O)N([C@H]2C[C@H](O)[C@@H](CO)O2)CN1` [DHADC, 5,6-dihydro-5-aza-2′-deoxycytidine], the “Cytotoxicity compared to decitabine” value [2] is given as “lesser cytotoxicity”.
In the case of `Nc1ncn([C@H]2C[C@H](O)[C@@H](CO)O2)c(=O)n1` [Decitabine, 5-azadeoxycytidine], the “Substrate for cytidine deaminase” value [3] is listed as “good substrates for cytidine deaminase”, the “Remissions or clinical improvements” value [1] is listed as “remissions or clinical improvements in more than half of the treated patients” and the Half-life [4] is listed as 30 min.
With `Nc1ncn([C@@H]2O[C@H](CO)[C@@H](O)C2(F)F)c(=O)n1` [NUC013, 2′,2′-difluoro-5-azadeoxycytidine] the “DNA methyltransferase inhibition (conclusion in words)” value [5] was “is an inhibitor of DNA methyltransferase” and the “Cytotoxicity profile (in words)” value [6] was “active against cell lines that are resistant to decitabine”.
For `NC1=NC(=O)N([C@@H]2O[C@H](CO)[C@@H](O)C2(F)F)CN1` [NUC014, 2′,2′-difluoro-5,6-dihydro-5-azadeoxycytidine], the “Cytotoxicity profile (in words)” value [6] was “less cytotoxic than NUC013”.
For `O=c1ncccn1[C@@H]1O[C@H](CO)[C@@H](O)C1(F)F` [NUC019, 2′-deoxy-2′,2′-difluorozebularine], the IC50 [7] was 321 µM, the IC50 ([8]; Table 3, read-out: In vitro cytotoxicity, Colon HCT-116) was 310 µM and the IC50 ([9]; Table 3, read-out: In vitro cytotoxicity, NSCL NCI-H460) was 136 µM. It also gave an IC50 ([10]; Table 3, read-out: In vitro cytotoxicity, Breast MDA-MB-231) of 166 µM.
`O=c1ncccn1[C@H]1O[C@H](CO)[C@@H](O)C1(F)F` [NUC020] showed an IC50 [8] of 279 µM, an IC50 [11] of 346 µM and an IC50 [9] of 136 µM. The IC50 [10] was 213 µM.
